Measurements published in ChEMBL document CHEMBL1151613, “Potential anticancer agents XXXI. N-demethylation of fagaronine” (1984).
≈ marks a conversion by molar mass, not a printed value. Calls of active or inactive are those of the source. The calls are words filed in the database; no cut-off is given here.

Legend:
P388 [1] = experiment: Cytotoxicity against mouse P388 cells after 48 hrs; type: functional; details: P388, 48 h, read-out: ED50 (the source's name)
KB [2] = experiment: Cytotoxicity against human KB cells at 25 ug/ml after 48 hrs; type: functional, cell-based
KB [3] = experiment: Cytotoxicity against human KB cells after 48 hrs; type: functional; details: read-out: ED50 (the source's name)
P388 [4] = experiment: Cytotoxicity against mouse P388 cells at 25 ug/ml after 48 hrs; type: functional, cell-based
L1210 [5] = experiment: In vivo antitumor activity against mouse L1210 cells at 320 mg/kg administered on day 1 and 9 relative to control; type: functional
P388 [6] = experiment: In vivo antitumor activity against mouse P388 cells at 50 mg/kg for 1 to 10 days relative to control; type: functional
[7] = In vivo antitumor activity against mouse CD8F1 cells at 1000 mg/kg administered on day 24 relative to control; type: functional
P388 [8] = experiment: In vivo antitumor activity against mouse P388 cells at 320 mg/kg administered on day 1, 5 and 9 relative to control; type: functional
MX1 [9] = experiment: In vivo antitumor activity against human MX1 cells at 1200 mg/kg administered on day 1, 5 and 9 relative to control; type: functional
LX-1 [10] = experiment: In vivo antitumor activity against human LX1 cells at 1200 mg/kg administered on day 1, 5 and 9 relative to control; type: functional
L1210 [11] = experiment: In vivo antitumor activity against mouse L1210 cells at 80 mg/kg administered on day 1, 5 and 9 relative to control; type: functional
B16 [12] = experiment: In vivo antitumor activity against mouse B16 cells at 200 mg/kg for 1 to 9 days relative to control; type: functional
L1210 [13] = experiment: In vivo antitumor activity against mouse L1210 cells at 160 mg/kg administered on day 1 and 9 relative to control; type: functional
P388 [14] = experiment: In vivo antitumor activity against mouse P388 cells at 80 mg/kg administered on day 1, 5 and 9 relative to control; type: functional
L1210 [15] = experiment: In vivo antitumor activity against mouse L1210 cells at 40 mg/kg administered on day 1, 5 and 9 relative to control; type: functional
L1210 [16] = experiment: In vivo antitumor activity against mouse L1210 cells at 40 mg/kg administered on day 1 and 9 relative to control; type: functional
P388 [17] = experiment: In vivo antitumor activity against mouse P388 cells at 160 mg/kg administered on day 1, 5 and 9 relative to control; type: functional
P388 [18] = experiment: In vivo antitumor activity against mouse P388 cells at 80 mg/kg for 1 to 9 days relative to control; type: functional
MC-38 [19] = experiment: In vivo antitumor activity against mouse Colon 38 cells at 100 mg/kg administered on day 2 and 9 relative to control; type: functional
Colon 26 [20] = experiment: In vivo antitumor activity against mouse Colon 26 cells at 160 mg/kg administered on day 1, 5 and 9 relative to control; type: functional
LX-1 [21] = experiment: In vivo antitumor activity against human LX1 cells at 300 mg/kg administered on day 1, 5 and 9 relative to control; type: functional
MX1 [22] = experiment: In vivo antitumor activity against human MX1 cells at 150 mg/kg administered on day 1, 5 and 9 relative to control; type: functional
CX-1 [23] = experiment: In vivo antitumor activity against human CX-1 cells at 150 mg/kg administered on day 1, 5,9 and 13 relative to control; type: functional
P388 [24] = experiment: In vivo antitumor activity against mouse P388 cells at 40 mg/kg for 1 to 9 days relative to control; type: functional
[25] = tested on: Lewis lung carcinoma cell line; experiment: In vivo antitumor activity against mouse LLC cells at 50 mg/kg for 1 to 9 days relative to control; type: functional
LX-1 [26] = experiment: In vivo antitumor activity against human LX1 cells at 2400 mg/kg administered on day 1, 5 and 9 relative to control; type: functional
[27] = tested on: Lewis lung carcinoma cell line; experiment: In vivo antitumor activity against mouse LLC cells at 200 mg/kg for 1 to 9 days relative to control; type: functional
[28] = tested on: Lewis lung carcinoma cell line; experiment: In vivo antitumor activity against mouse LLC cells at 25 mg/kg for 1 to 9 days relative to control; type: functional
P388 [29] = experiment: In vivo antitumor activity against mouse P388 cells at 40 mg/kg administered on day 1, 5 and 9 relative to control; type: functional
P388 [30] = experiment: In vivo antitumor activity against mouse P388 cells at 160 mg/kg for 1 to 9 days relative to control; type: functional
MC-38 [31] = experiment: In vivo antitumor activity against mouse Colon 38 cells at 200 mg/kg administered on day 2 and 9 relative to control; type: functional
CX-1 [32] = experiment: In vivo antitumor activity against human CX-1 cells at 600 mg/kg administered on day 1, 5, 9 and 13 relative to control; type: functional
P388 [33] = experiment: In vivo antitumor activity against mouse P388 cells at 100 mg/kg for 1 to 10 days relative to control; type: functional
MX1 [34] = experiment: In vivo antitumor activity against human MX1 cells at 300 mg/kg relative to control on day 1, 5 and 9 relative to control; type: functional
Colon 26 [35] = experiment: In vivo antitumor activity against mouse Colon 26 cells at 80 mg/kg administered on day 1, 5 and 9 relative to control; type: functional
LX-1 [36] = experiment: In vivo antitumor activity against human LX1 cells at 600 mg/kg administered on day 1, 5 and 9 relative to control; type: functional
Colon 26 [37] = experiment: In vivo antitumor activity against mouse Colon 26 cells at 40 mg/kg administered on day 1, 5 and 9 relative to control; type: functional
B16 [38] = experiment: In vivo antitumor activity against mouse B16 cells at 100 mg/kg for 1 to 9 days relative to control; type: functional
L1210 [39] = experiment: In vivo antitumor activity against mouse L1210 cells at 80 mg/kg administered on day 1 and 9 relative to control; type: functional
Colon 26 [40] = experiment: In vivo antitumor activity against mouse Colon 26 cells at 320 mg/kg administered on day 1, 5 and 9 relative to control; type: functional
P388 [41] = experiment: In vivo antitumor activity against mouse P388 cells at 25 mg/kg for 1 to 10 days relative to control; type: functional
[42] = In vivo antitumor activity against mouse CD8F1 cells at 2000 mg/kg on day 24 relative to control; type: functional
[43] = tested on: Lewis lung carcinoma cell line; experiment: In vivo antitumor activity against mouse LLC cells at 100 mg/kg for 1 to 9 days relative to control; type: functional
CX-1 [44] = experiment: In vivo antitumor activity against human CX-1 cells at 75 mg/kg administered on day 1, 5,9 and 13 relative to control; type: functional
P388 [45] = experiment: In vivo antitumor activity against mouse P388 cells at 320 mg/kg for 1 to 9 days relative to control; type: functional
MC-38 [46] = experiment: In vivo antitumor activity against mouse Colon 38 cells at 50 mg/kg administered on day 2 and 9 relative to control; type: functional
L1210 [47] = experiment: In vivo antitumor activity against mouse L1210 cells at 160 mg/kg administered on day 1, 5 and 9 relative to control; type: functional
L1210 [48] = experiment: In vivo antitumor activity against mouse L1210 cells at 320 mg/kg administered on day 1, 5 and 9 relative to control; type: functional
[49] = In vivo antitumor activity against mouse CD8F1 cells at 125 mg/kg administered on day 24 relative to control; type: functional
B16 [50] = experiment: In vivo antitumor activity against mouse B16 cells at 50 mg/kg for 1 to 9 days relative to control; type: functional
CX-1 [51] = experiment: In vivo antitumor activity against human CX-1 cells at 300 mg/kg administered on day 1, 5, 9 and 13 relative to control; type: functional
MX1 [52] = experiment: In vivo antitumor activity against human MX1 cells at 600 mg/kg administered on day 1, 5 and 9 relative to control; type: functional
[53] = In vivo antitumor activity against mouse CD8F1 cells at 250 mg/kg administered on day 24 relative to control; type: functional
[54] = In vivo antitumor activity against mouse CD8F1 cells at 500 mg/kg administered on day 24 relative to control; type: functional

COc1cc2c(ccc3c4cc(OC)c(OC)cc4cnc23)cc1O
EC50 (P388 [1]): 36.5 µg/mL (≈ 109 µM) | Activity (KB [2]): inactive

COc1cc2c(cnc3c4cc(OC)c(O)cc4ccc23)cc1O
EC50 (KB [3]): 22.4 µg/mL (≈ 69.7 µM) | EC50 (P388 [1]): 13 µg/mL (≈ 40.5 µM)

COc1cc2cnc3c4cc(OC)c(OC)cc4ccc3c2cc1OC
Activity (P388 [4]): inactive | Activity (KB [2]): inactive

COc1cc2c(ccc3c4cc(OC)c(OC)cc4c[n+](C)c23)cc1O.[Cl-] [FAGARONINE]
T/C (L1210 [5]): 161% | T/C (P388 [6]): 210% | T/C [7]: 89% | T/C (P388 [8]): 270% | T/C (MX1 [9]): 68% | T/C (LX-1 [10]): 46% | EC50 (KB [3]): 0.57 µg/mL | T/C (L1210 [11]): 145% | T/C (B16 [12]): 100% | T/C (L1210 [13]): 145% | EC50 (P388 [1]): 0.18 µg/mL | T/C (P388 [14]): 180% | T/C (L1210 [15]): 143% | T/C (L1210 [16]): 137% | T/C (P388 [17]): 215% | T/C (P388 [18]): 210% | T/C (MC-38 [19]): 89% | T/C (Colon 26 [20]): 120% | T/C (LX-1 [21]): 107% | T/C (MX1 [22]): 83% | T/C (CX-1 [23]): 42% | T/C (P388 [24]): 190% | T/C [25]: 113% | T/C (LX-1 [26]): 65% | T/C [27]: 134% | T/C [28]: 111% | T/C (P388 [29]): 190% | T/C (P388 [30]): 270% | T/C (MC-38 [31]): 81% | T/C (CX-1 [32]): 75% | T/C (P388 [33]): 265% | T/C (MX1 [34]): 74% | T/C (Colon 26 [35]): 121% | T/C (LX-1 [36]): 79% | T/C (Colon 26 [37]): 117% | T/C (B16 [38]): 97% | T/C (L1210 [39]): 159% | T/C (Colon 26 [40]): 138% | T/C (P388 [41]): 90% | T/C [42]: 121% | T/C [43]: 125% | T/C (CX-1 [44]): 49% | T/C (P388 [45]): 205% | T/C (MC-38 [46]): 139% | T/C (L1210 [47]): 136% | T/C (L1210 [48]): 137% | T/C [49]: 137% | T/C (B16 [50]): 108% | T/C (CX-1 [51]): 51% | T/C (MX1 [52]): 79% | T/C [53]: 190% | T/C [54]: 134%

COc1cc2c(cnc3c4cc(OC)c(OC(C)=O)cc4ccc23)cc1OC(C)=O
EC50 (KB [3]): 50 µg/mL (≈ 123 µM) | EC50 (P388 [1]): 12.5 µg/mL (≈ 30.8 µM)

COc1cc2cnc3c4cc(OC)c(OC(C)=O)cc4ccc3c2cc1OC
Activity (P388 [4]): inactive | Activity (KB [2]): inactive
